Drawing on patent US11034725B2, “Compositions and methods for treating cardiovascular disease” (Genentech, Inc., priority 2016, dated 2021), this text covers IC50 for eight compounds.

SMILES strings stand for the structures. Read-outs that look alike come from different tables or passages of the source. Bridge positions count the residues as written; N and C are the ends. Square brackets hold non-standard residues; d marks the D form. Peptide text beside a SMILES is read from it. * marks the point of attachment. Benzoyl(4-Ph) = O=C(c1ccc(-c2ccccc2)cc1)*; X21 = O=C([C@@H]1C[C@@H]1c1cccnc1)*; hArg = N=C(N)NCCCC[C@H](N)C(=O)O; X25 = COc1cc(CCC(=O)*)ccc1O; X40 = CC(CC(=O)*)CC(C)(C)C; X33 = CN1CCN(CCC(=O)*)CC1 A value given as a limit tells only on which side of the number the result lay.

One assay deals with PCSK9 (Homo sapiens, UniProt Q8NBP7). Briefly: PCSK9/EGF(A) TR-FRET binding assay. The settings on record: Table 8E, additional compounds. On the technique in general: In TR-FRET formats the signal depends on donor and acceptor labels being close together.
Another assay has as its target T1, PCSK9Δhelix (Homo sapiens, UniProt Q8NBP7).
T1 construct: Human PCSK9 construct M1-Q692 with an engineered TEV site (residue deletion Y166, R167); made in house; host or cells: CHO
Briefly: PCSK9Δhelix/Ab20 TR-FRET binding assay.

[1] abbreviates: TR-FRET, read-out: PCSK9/EGF(A) IC50.
The mark [2] stands for this setting: TR-FRET, Table 8E, additional compounds, read-out: PCSK9Δhelix/Ab20 IC50.
Setting [3] is: TR-FRET, Table 8D, disulfide-cyclized extension peptides, read-out: PCSK9Δhelix/Ab20 IC50.

T1 sequence (Q8NBP7 with tags, fused parts or gaps limits assumed): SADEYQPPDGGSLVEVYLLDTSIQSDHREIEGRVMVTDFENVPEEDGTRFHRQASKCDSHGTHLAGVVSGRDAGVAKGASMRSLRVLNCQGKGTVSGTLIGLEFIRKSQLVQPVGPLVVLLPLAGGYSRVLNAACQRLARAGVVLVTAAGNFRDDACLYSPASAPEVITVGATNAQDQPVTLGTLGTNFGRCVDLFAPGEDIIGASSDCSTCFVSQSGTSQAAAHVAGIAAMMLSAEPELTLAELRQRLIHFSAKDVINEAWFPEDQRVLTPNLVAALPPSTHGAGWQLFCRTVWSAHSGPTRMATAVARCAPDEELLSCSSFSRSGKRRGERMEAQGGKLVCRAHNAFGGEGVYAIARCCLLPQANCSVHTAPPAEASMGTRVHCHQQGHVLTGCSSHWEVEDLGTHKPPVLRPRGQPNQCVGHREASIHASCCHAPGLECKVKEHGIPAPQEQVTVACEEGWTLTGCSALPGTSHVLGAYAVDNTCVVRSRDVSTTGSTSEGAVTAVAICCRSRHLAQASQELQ
T1 sequence (Q8NBP7 31-152 partner limits assumed): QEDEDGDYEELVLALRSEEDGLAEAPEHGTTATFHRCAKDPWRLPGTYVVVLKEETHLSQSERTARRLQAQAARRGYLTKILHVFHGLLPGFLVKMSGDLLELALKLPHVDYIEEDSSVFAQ
PCSK9, sequence (Q8NBP7 153-692): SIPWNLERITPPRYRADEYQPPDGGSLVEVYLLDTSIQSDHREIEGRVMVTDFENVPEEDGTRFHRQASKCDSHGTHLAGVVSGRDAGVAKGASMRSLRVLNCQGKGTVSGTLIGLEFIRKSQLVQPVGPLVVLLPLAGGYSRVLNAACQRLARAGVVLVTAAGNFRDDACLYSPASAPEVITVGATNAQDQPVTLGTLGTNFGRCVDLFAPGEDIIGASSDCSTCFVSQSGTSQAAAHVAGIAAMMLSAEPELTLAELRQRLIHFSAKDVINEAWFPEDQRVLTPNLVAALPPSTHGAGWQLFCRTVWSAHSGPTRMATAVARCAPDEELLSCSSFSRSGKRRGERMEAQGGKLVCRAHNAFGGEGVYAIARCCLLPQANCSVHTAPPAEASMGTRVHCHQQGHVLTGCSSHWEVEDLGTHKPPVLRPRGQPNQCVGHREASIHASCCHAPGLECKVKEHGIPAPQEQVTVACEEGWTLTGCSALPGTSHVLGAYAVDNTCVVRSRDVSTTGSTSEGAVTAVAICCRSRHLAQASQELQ
PCSK9, sequence (Q8NBP7 31-152 partner limits assumed): as the sequence (Q8NBP7 31-152 partner limits assumed) above

Regarding `CC[C@H](C)[C@H](NC(=O)[C@H](CCCCNC(=N)N)NC(=O)[C@@H](NC(=O)[C@H](CC(C)C)NC(=O)[C@H](CC(N)=O)NC(=O)[C@H](Cc1c[nH]c2ccccc12)NC(=O)[C@@H](N)Cc1ccc(O)cc1)C(C)C)C(=O)NCC(=O)N[C@@H](CC(C)C)C(=O)N[C@@H](CC(C)C)C(=O)N[C@@H](CCCNC(=N)N)C(N)=O` [Compound 226] (H-YWNLV[hArg]IGLLR-NH2), the IC50 is 6.2 µM at PCSK9 (setting [1]) and 0.35 µM on PCSK9Δhelix (setting [2]).
In the case of `CC[C@H](C)[C@H](NC(=O)[C@H](CCCNC(=N)N)NC(=O)[C@@H](NC(=O)[C@H](CC(C)C)NC(=O)[C@H](CC(N)=O)NC(=O)[C@H](Cc1c[nH]c2ccccc12)NC(=O)CCN1CCN(C)CC1)C(C)C)C(=O)NCC(=O)N[C@@H](CC(C)C)C(=O)N[C@@H](CC(C)C)C(=O)N[C@@H](CCCNC(=N)N)C(N)=O` [Compound 140] (X33-WNLVRIGLLR-NH2), the IC50 on PCSK9 (setting [1]) is ≥ 50 µM; on PCSK9Δhelix (setting [2]), 26 µM.
As to `CC[C@H](C)[C@H](NC(=O)[C@H](CCCNC(=N)N)NC(=O)[C@@H](NC(=O)[C@H](CC(C)C)NC(=O)[C@H](CC(N)=O)NC(=O)[C@H](Cc1c[nH]c2ccccc12)NC(=O)c1ccc(-c2ccccc2)cc1)C(C)C)C(=O)NCC(=O)N[C@@H](CC(C)C)C(=O)N[C@@H](CC(C)C)C(=O)N[C@@H](CCCNC(=N)N)C(N)=O` [Compound 145] ({Benzoyl(4-Ph)}-WNLVRIGLLR-NH2), the IC50 on PCSK9 (PCSK9/EGF(A) IC50, TR-FRET) turned out to be 7.3 µM; at PCSK9Δhelix (PCSK9Δhelix/Ab20 IC50, TR-FRET, Table 8E, additional compounds), 2.2 µM.
With `CC[C@H](C)[C@H](NC(=O)[C@H](CCCNC(=N)N)NC(=O)[C@@H](NC(=O)[C@H](CC(C)C)NC(=O)[C@H](CC(N)=O)NC(=O)[C@H](Cc1c[nH]c2ccccc12)NC(=O)CC(C)CC(C)(C)C)C(C)C)C(=O)NCC(=O)N[C@@H](CC(C)C)C(=O)N[C@@H](CC(C)C)C(=O)N[C@@H](CCCNC(=N)N)C(N)=O` (stereo partly shown) [Compound 149] (X40-WNLVRIGLLR-NH2), the IC50 came to 11 µM at PCSK9 (setting [1]) and 8.9 µM on PCSK9Δhelix (setting [2]).
On to `CC[C@H](C)[C@H](NC(=O)[C@H](CCCCNC(=N)N)NC(=O)[C@@H](NC(=O)[C@H](CC(C)C)NC(=O)[C@H](CC(N)=O)NC(=O)[C@H](Cc1c[nH]c2ccccc12)NC(=O)CCc1ccc(O)c(OC)c1)C(C)C)C(=O)NCC(=O)N[C@@H](CC(C)C)C(=O)N[C@@H](CC(C)C)C(=O)N[C@@H](CC(N)=O)C(N)=O` [Compound 238] (X25-WNLV[hArg]IGLLN-NH2), for which the IC50 at PCSK9 (setting [1]) was 7.7 µM; on PCSK9Δhelix (setting [2]), 0.33 µM.
Turning to `CC[C@H](C)[C@H](NC(=O)[C@H](CCCCNC(=N)N)NC(=O)[C@@H](NC(=O)[C@H](CC(C)C)NC(=O)[C@H](CC(N)=O)NC(=O)[C@H](Cc1c[nH]c2ccccc12)NC(=O)[C@@H]1C[C@@H]1c1cccnc1)C(C)C)C(=O)NCC(=O)N[C@@H](CC(C)C)C(=O)N[C@@H](CC(C)C)C(=O)N[C@@H](CCCNC(=N)N)C(N)=O` [Compound 221] (X21-WNLV[hArg]IGLLR-NH2), at PCSK9 (setting [1]), the IC50 was 9.5 µM.
Consider `CC[C@H](C)[C@@H]1NC(=O)[C@H](CCCNC(=N)N)NC(=O)[C@H](CCCCN)NC(=O)[C@H](CC(C)C)NC(=O)[C@H](CC(N)=O)NC(=O)[C@H](Cc2c[nH]c3ccccc23)NC(=O)[C@H](CC(C)C)NC(=O)[C@@H](NC(=O)[C@@H](N)Cc2c[nH]c3ccccc23)CSSC[C@@H](C(=O)N[C@@H](Cc2c[nH]c3ccccc23)C(=O)N[C@@H](Cc2ccccc2)C(=O)O)NC(=O)[C@H](CCC(N)=O)NC(=O)[C@H](CO)NC(=O)CNC1=O` [Compound 66] (H-WCLWNLKRIGSQCWF-OH; disulfide 2-13), for which the IC50 at PCSK9Δhelix (setting [3]) was 12 µM.
For the compound `CC[C@H](C)[C@@H]1NC(=O)[C@H](CCCNC(=N)N)NC(=O)[C@H](CCCCN)NC(=O)[C@H](CC(C)C)NC(=O)[C@H](CC(N)=O)NC(=O)[C@H](Cc2c[nH]c3ccccc23)NC(=O)[C@H](CC(C)C)NC(=O)[C@@H](NC(=O)[C@H](Cc2c[nH]c3ccccc23)NC(C)=O)CSSC[C@@H](C(=O)N[C@@H](Cc2c[nH]c3ccccc23)C(=O)N[C@@H](Cc2ccccc2)C(=O)O)NC(=O)[C@H](CCC(N)=O)NC(=O)[C@H](CO)NC(=O)CNC1=O` [Compound 90] (Ac-WCLWNLKRIGSQCWF-OH; disulfide 2-13), the IC50 at PCSK9Δhelix (setting [3]) turned out to be 7.38 µM.
